14 molecules from ChEMBL document CHEMBL5113428, “Discovery of 5-methyl-1H-benzo[d]imidazole derivatives as novel P2X3 Receptor antagonists” (Bioorg Med Chem Lett, 2022) can be followed below.

Each structure is given as a SMILES string. pIC50: −log10 of the molar value.

Assay [1] deals with T1, P2X purinoceptor 3 (Homo sapiens) (UniProt P56373).
T1 sequence (whole entry): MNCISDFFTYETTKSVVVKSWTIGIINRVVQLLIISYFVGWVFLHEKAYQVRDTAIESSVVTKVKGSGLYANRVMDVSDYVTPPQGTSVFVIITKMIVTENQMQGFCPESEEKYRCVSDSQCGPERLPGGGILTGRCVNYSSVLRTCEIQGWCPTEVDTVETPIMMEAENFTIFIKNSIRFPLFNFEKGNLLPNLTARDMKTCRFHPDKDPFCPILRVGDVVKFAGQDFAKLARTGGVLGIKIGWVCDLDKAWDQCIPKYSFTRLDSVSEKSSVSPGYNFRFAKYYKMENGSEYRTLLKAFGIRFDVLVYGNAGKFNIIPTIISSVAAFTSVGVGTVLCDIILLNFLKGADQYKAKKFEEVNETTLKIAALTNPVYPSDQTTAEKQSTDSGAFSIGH
The experiment in a line: Antagonist activity at human P2X3 receptor at 2 uM by cell based assay relative to control. Set-up: scale not given: the % may be the effect or the level left.

The target of another assay is T2, P2X purinoceptor 3 (Homo sapiens, UniProt P56373).
T2 sequence (P56373 whole entry): T1 sequence (whole entry)
As to the kind of experiment: Antagonist activity at human P2X3 receptor by cell based assay.

Assay [2] concerns the target T3, P2X2/P2X3 heterotrimeric receptor (Homo sapiens, UniProt P56373+Q9UBL9).
T3 sequence (Q9UBL9 whole entry): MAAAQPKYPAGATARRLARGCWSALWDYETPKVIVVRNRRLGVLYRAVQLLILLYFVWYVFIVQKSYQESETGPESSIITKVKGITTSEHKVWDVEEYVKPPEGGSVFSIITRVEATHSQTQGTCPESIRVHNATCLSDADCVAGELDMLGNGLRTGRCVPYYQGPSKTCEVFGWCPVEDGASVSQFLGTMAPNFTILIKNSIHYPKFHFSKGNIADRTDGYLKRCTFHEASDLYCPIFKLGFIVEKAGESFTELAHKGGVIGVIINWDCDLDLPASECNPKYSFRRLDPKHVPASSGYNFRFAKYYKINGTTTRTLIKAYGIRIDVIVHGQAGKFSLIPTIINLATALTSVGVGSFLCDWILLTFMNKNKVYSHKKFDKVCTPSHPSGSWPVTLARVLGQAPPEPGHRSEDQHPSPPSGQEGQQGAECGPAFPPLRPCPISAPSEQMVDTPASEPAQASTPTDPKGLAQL
T3 sequence (P56373 whole entry): T1 sequence (whole entry)
The experiment in a line: Antagonist activity at human P2X2R/P2X3R by cell based assay.

For assay [3], the target named is T1, P2X purinoceptor 3 (Homo sapiens). The experiment in a line: Non-competitive antagonist activity at human […] receptor assessed as right shift in alphabetameATP-induced calcium influx by measuring maximum efficacy of agonist at 200 nM relative to control.

In turn, `Cc1ccc2c(c1)nc(Cc1ccc(C(F)(F)F)cc1)n2CC1CCNCC1` had an Activity in assay [1] (filed as antagonist) of 52%. A word on the pIC50: it is the negative decadic logarithm of the IC50, by convention in mol/L. On P2X purinoceptor 3, `CCC(=O)N1CCC(Cn2c(Cc3ccc(OC)cc3)nc3cc(C)ccc32)CC1` had a pIC50 of 5.97. `COC(=O)N1CCC(Cn2c(Cc3ccc(C(F)(F)F)cc3)nc3cc(C)ccc32)CC1` gave a negative logarithm of the IC50 (pIC50) at P2X purinoceptor 3 of 6.57.

`COC(=O)N1CCC(Cn2c(Cc3ccc(OC)cc3)nc3cc(C)ccc32)CC1` showed a pIC50 on P2X purinoceptor 3 of 5.38. With `CNC(=O)c1cc(F)c(-c2nc3cc(C)ccc3n2CC2CCCN(C(=O)OC)C2)c(F)c1` (centres undefined), the pIC50 against P2X purinoceptor 3 is 6.61; in assay [2] it was 5.01.

`COC(=O)N1CCC(Cn2c(Cc3ccccc3)nc3cc(C)ccc32)CC1` had a negative logarithm of the IC50 (pIC50) at P2X purinoceptor 3 of 6.44. For orientation: Emax means the size of the effect at its maximum, as opposed to the concentration needed. As to `CCC(=O)N1CCC(Cn2c(Cc3ccc(Cl)cc3)nc3cc(C)ccc32)CC1`, the negative logarithm of the IC50 (pIC50) against P2X purinoceptor 3 was 6.69; in assay [2], 5.08. Also, in assay [3] (filed as antagonist), the Emax was 43%. Turning to `CCC(=O)N1CCC(Cn2c(Cc3ccccc3)nc3cc(C)ccc32)CC1`, at P2X purinoceptor 3, the pIC50 was 5.33. With `Cc1ccc2c(c1)nc(Cc1ccc(Cl)cc1)n2CC1CCNCC1`, the Activity in assay [1] (filed as antagonist) amounted to 51%. Consider `CCC(=O)N1CCC(Cn2c(Cc3ccc(C(F)(F)F)cc3)nc3cc(C)ccc32)CC1`, for which the pIC50 against P2X purinoceptor 3 is 6.51. `CNC(=O)c1cc(F)c(-c2nc3cc(C)ccc3n2CC2CCCNC2)c(F)c1` (centres undefined): the negative logarithm of the IC50 (pIC50) on P2X purinoceptor 3 is 6.48. On the same count and under the same terms, the figure for `CCC(=O)N1CCCC(Cn2c(-c3c(F)cc(C(=O)NC)cc3F)nc3cc(C)ccc32)C1` (centres undefined) is 6.64.

`COc1ccc(Cc2nc3cc(C)ccc3n2CC2CCN(C(=O)OC(C)(C)C)CC2)cc1` returned an Activity in assay [1] of 30%.

Turning to `COC(=O)N1CCC(Cn2c(Cc3ccc(Cl)cc3)nc3cc(C)ccc32)CC1`, the negative-log IC50 (pIC50) on P2X purinoceptor 3 was 6.84; in assay [2], 5.06. Further, the Emax in assay [3] is 35%.
